Source: the CheMixHub ionic liquid set
± gives the uncertainty stated by the source.

Assay: xn = mol fraction of the nth substance listed
Conditions: 100 kPa

CCCCCCCC[P+](CC)(CC)CC.Cc1ncc([N+](=O)[O-])[n-]1 + COCCOCCOCCOCCOC
viscosity [mPa·s]
Conditions	278.15 K	283.15 K	288.15 K	293.15 K	298.15 K	303.15 K	308.15 K	313.15 K	318.15 K	323.15 K
x2 = 0	3660 ± 320	2240 ± 180	1410 ± 99	920 ± 57	623 ± 33	435 ± 20	313 ± 12	231 ± 8	174 ± 5	135 ± 3
x2 = 0.036	2730 ± 230	1700 ± 130	1090 ± 71	722 ± 41	495 ± 24	350 ± 15	255 ± 9	189 ± 6	145 ± 4	113 ± 2
x2 = 0.067	1990 ± 150	1270 ± 86	829 ± 49	559 ± 29	390 ± 17	280 ± 11	206 ± 7	155 ± 4	120 ± 3	95 ± 2
x2 = 0.115	1470 ± 100	955 ± 59	636 ± 34	438 ± 20	310 ± 12	227 ± 8	170 ± 5	130 ± 3	101 ± 2	81 ± 1
x2 = 0.233	651 ± 36	446 ± 21	311 ± 12	223 ± 7	166 ± 5	126 ± 3	98 ± 2	78 ± 1	62 ± 1	–
x2 = 0.3	375 ± 17	262 ± 10	187 ± 6	137 ± 3	103 ± 2	80 ± 1	64 ± 1	51 ± 1	–	–
x2 = 0.399	200 ± 7	145 ± 4	107 ± 2	81 ± 1	64 ± 1	50 ± 1	–	–	–	–
x2 = 0.5	113 ± 3	86 ± 2	66 ± 1	51 ± 1	–	–	–	–	–	–
x2 = 0.598	62 ± 1	–	–	–	–	–	–	–	–	–
